According to PubChem BioAssay AID1645863 (Buhrlage Lab, Dana-Farber Cancer Institute and Novartis …, 2021):
Calls of active or inactive are those of the source. How the calls were made is not given here.

Each compound was assayed against Ubiquitin carboxyl-terminal hydrolase 10 (Homo sapiens) (UniProt Q14694) (assay: ubiquitin-specific protease 10 DUB inhibitors, concentration-effect, biochemical, verification of primary screen actives (AID 1645863;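 further: potency values describe inhibition of USP10 cleavage of a fluorogenic ubiquitin substrate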)). Settings: USP10 deubiquitinase enzymatic assay.
Chain of Ubiquitin carboxyl-terminal hydrolase 10 (Homo sapiens) (Q14694 whole entry, looked up): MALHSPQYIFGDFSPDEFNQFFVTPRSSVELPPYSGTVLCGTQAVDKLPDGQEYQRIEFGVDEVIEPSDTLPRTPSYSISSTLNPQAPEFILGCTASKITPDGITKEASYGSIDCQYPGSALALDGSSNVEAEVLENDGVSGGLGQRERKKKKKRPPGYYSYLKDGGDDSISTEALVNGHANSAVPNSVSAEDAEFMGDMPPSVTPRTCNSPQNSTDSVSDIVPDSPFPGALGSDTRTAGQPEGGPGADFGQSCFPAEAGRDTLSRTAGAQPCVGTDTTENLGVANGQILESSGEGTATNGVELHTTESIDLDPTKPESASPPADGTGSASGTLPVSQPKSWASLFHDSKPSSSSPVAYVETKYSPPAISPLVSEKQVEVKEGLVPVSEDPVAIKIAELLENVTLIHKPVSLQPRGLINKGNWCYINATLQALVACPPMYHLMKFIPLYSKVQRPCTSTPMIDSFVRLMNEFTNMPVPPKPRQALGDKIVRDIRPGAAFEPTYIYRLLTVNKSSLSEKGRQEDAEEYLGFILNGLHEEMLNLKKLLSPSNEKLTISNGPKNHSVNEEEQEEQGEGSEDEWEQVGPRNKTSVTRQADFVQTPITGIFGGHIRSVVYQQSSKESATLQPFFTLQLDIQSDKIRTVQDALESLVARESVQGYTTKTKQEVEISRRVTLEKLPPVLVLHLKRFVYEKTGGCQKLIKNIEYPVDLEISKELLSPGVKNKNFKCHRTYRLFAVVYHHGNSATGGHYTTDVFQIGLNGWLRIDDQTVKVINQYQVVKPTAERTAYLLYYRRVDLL

Row | Compound | IC50
1 | Cc1ccccc1NC(=O)Cc1csc2nc(-c3ccc(F)cc3)cn12 | > 40 µM (inactive)
2 | CC1CCCN(S(=O)(=O)c2ccc(-n3cnc(C(=O)NC4CC4)c3)nc2)C1 (stereo unspecified) | 23.2 µM
3 | CN(C)c1ccc(S(=O)(=O)N2CCCCC2)cc1NC(=O)COc1ccccc1 | > 40 µM (inactive)
4 | Cc1nnc(NC(=O)C2CCN(c3ccc(S(N)(=O)=O)cc3[N+](=O)[O-])CC2)o1 | 12.6 µM
5 | CO/C=C/C(=O)c1cc2cnc3c(=N)cc(NC(C)=O)c([nH]1)c23 | inactive
6 | Cn1c(COc2cccc3cccnc23)nnc1SCC(=O)c1ccc(Cl)cc1Cl | > 40 µM (inactive)
7 | O=C(CSc1nnc2ccc3ccccc3n12)c1ccc(Cl)cc1 | > 40 µM (inactive)
8 | COc1ccc(S(=O)(=O)NC2CC(=O)N(c3ccc(Cl)cc3)C2)cc1 (stereo unspecified) | > 40 µM (inactive)
9 | CC(NC(=O)c1ccccc1)c1nc2ccccc2n1CC(=O)Nc1ccc(C#N)cc1 (stereo unspecified) | 13.2 µM
10 | O=C(Cn1cccc(-c2nc(-c3ccccc3)no2)c1=O)Nc1ccccc1F | > 40 µM (inactive)
11 | O=c1c2ccccc2nc(/C=C/c2ccco2)n1Cc1ccccc1 | > 40 µM (inactive)
12 | O=C(CSc1nc(=O)n(Cc2ccncc2)c2c1CCC2)NCCc1ccccc1 | > 40 µM (inactive)
13 | Cc1ccc(-c2cc(=O)n(CC(=O)Nc3ccc(C(C)C)cc3)cn2)cc1 | > 40 µM (inactive)
14 | O=C(COc1nc2ccccc2nc1N1CCOCC1)NC(c1ccccc1)c1ccccc1 | > 40 µM (inactive)
15 | CC(C)(C)c1ccc(C2CC(=O)C3=C(C2)Nc2ccccc2N(C(=O)CCC(=O)O)C3c2cccc([N+](=O)[O-])c2)cc1 (stereo unspecified) | > 40 µM (inactive)
16 | COc1ccc(COc2ccc3c(C)c(CC(=O)N4CC[C@@]5(O)CCCC[C@H]5C4)c(=O)oc3c2)cc1 | > 40 µM (inactive)
17 | COc1ccccc1NC(=O)CSC1=NC2(CCCCC2)Nc2ccccc21 | > 40 µM (inactive)
18 | O=C(Nc1ccc(Br)cc1F)c1ccc(S(=O)(=O)N2CCCC2)cc1 | > 40 µM (inactive)
19 | CC(C)c1ccc(NC(=O)COC(=O)c2ccc(NS(=O)(=O)c3ccc4c(c3)OCCO4)cc2)cc1 | 22.3 µM
20 | Cc1cccc(NC(=O)CSc2nc3c(cc2C#N)C(=O)CCC3)c1 | 26.4 µM
21 | CCCCCCCC1OC(=O)Cc2cc(O)c(O)c(O)c21 (stereo unspecified) | 3.3 µM
22 | O=C(COc1ccc(N2CC(C(=O)NCc3ccc4c(c3)OCO4)CC2=O)cc1)Nc1ccc(F)cc1 (stereo unspecified) | 20.8 µM

Row | Compound | IC50
23 | COC(=O)c1ccccc1NC(=O)CSc1nnc(CNc2ccc(F)cc2)n1CC1CCCO1 (stereo unspecified) | > 40 µM (inactive)
24 | O=C(CCn1c(=O)c2ccccc2n(CC(=O)OCc2ccccc2)c1=O)NCc1ccc2c(c1)OCO2 | 17.5 µM
25 | O=c1[nH]c(C2CCN(S(=O)(=O)c3ccc(S(=O)(=O)NC4CC4)cc3)CC2)nc2c1nnn2Cc1c(Cl)cccc1Cl | 27.5 µM
26 | COc1ccc(C2/C(=C(\O)c3ccccc3)C(=O)C(=O)N2c2nc3ccc(F)cc3s2)cc1 (stereo unspecified) | 8.94 µM
27 | COc1ccc(-c2cc3nc([C@H](C)NC(=O)Cc4ccccc4C)nn3cn2)cc1 | > 40 µM (inactive)
28 | COc1ccc(NC(=O)c2nnc(C(=O)NCc3ccccc3F)s2)cc1 | > 40 µM (inactive)
29 | O=C(Nc1ccccc1C(F)(F)F)c1cccc(S(=O)(=O)Nc2cc(C(F)(F)F)ccc2Cl)c1 | > 40 µM (inactive)
30 | CCN(CC)C(=O)c1sc(NC(=O)c2cc(-c3ccccc3Cl)nc3ccccc23)c(C(N)=O)c1C | > 40 µM (inactive)
31 | CSc1ncccc1C(=O)NC1(O)C(=O)c2ccccc2C1=O | 9.86 µM
32 | COc1cccc(NC(=O)CCc2nnc3n(CCCOC(C)C)c(=O)c4ccccc4n23)c1 | > 40 µM (inactive)
33 | Cc1nnc2ccc(-c3ccc(NC(=O)c4ccc(Br)o4)cc3)nn12 | > 40 µM (inactive)
34 | CCCN1CCN(C(=O)Cn2c(C)ccc(NC(=O)c3ccccc3)c2=O)CC1 | > 40 µM (inactive)
35 | COc1ccc(C(=O)C(C)OC(=O)c2cccc(S(=O)(=O)Nc3cc([N+](=O)[O-])ccc3OC)c2)c(OC)c1 (stereo unspecified) | > 40 µM (inactive)
36 | O=C(CCCn1c(=O)c2sccc2n(CC(=O)NCCC2=CCCCC2)c1=O)NCc1ccc2c(c1)OCO2 | 13.8 µM
37 | O=C(NCc1ccc(Br)cc1)c1cc(-c2cccnc2)n[nH]1 | > 40 µM (inactive)
38 | Cc1ccc(NC(=O)Cn2c(=O)n(CC(=O)NCCc3ccccc3)c(=O)c3sccc32)cc1C | 21 µM
39 | CCCn1cc(-c2nc(-c3ccccn3)no2)c(=O)c2ccccc21 | > 40 µM (inactive)
40 | CCCCCCCc1cc(OC(=O)c2c(CCCCCCC)cc(O)cc2O[C@@H]2O[C@H](CO)[C@H](O)[C@H](O)[C@H]2O)cc(O)c1C(=O)O | 5.17 µM
41 | COc1cccc(CNC(=O)c2nnn(CC(=O)Nc3cc(C)ccc3C)c2N)c1 | 29.9 µM
42 | CN1c2ccccc2C(=O)NC12CCN(C(=O)NCc1ccccc1)CC2 | > 40 µM (inactive)
43 | C[C@@H]1CO[C@@H]2C3=C(C(=O)C=CC3=O)[C@H]3OC(=O)[C@@H]4CCC5[C@@H]1CCC52C34 (stereo partly specified) | 18.5 µM
44 | Cc1ccccc1-c1nc(-c2cn(CC(=O)Nc3ccccc3)cn2)no1 | > 40 µM (inactive)

Row | Compound | IC50
45 | Cc1cc(=O)n(CC(=O)Nc2ccccc2C)c(Nc2ccc(F)cc2)n1 | 28.4 µM
46 | Cc1cc(-c2ccc(S(=O)(=O)NCc3ccc(Cl)cc3)s2)on1 | > 40 µM (inactive)
47 | Cc1ccc(C2SCC(=O)Nc3c2c(=O)[nH]n3C2CCCCC2)cc1 (stereo unspecified) | 28.8 µM
48 | CC(C)NC(=O)Cn1ccn2nc(-c3ccc(Cl)cc3)cc2c1=O | > 40 µM (inactive)
49 | COc1cc(O)cc2c1C(=O)OC(C)CCCCCCC2 (stereo unspecified) | 29.5 µM
50 | Cc1ccc2c(c1)N=C(c1ccc([N+](=O)[O-])cc1)CO2 | > 40 µM (inactive)
51 | O=C(c1cccnc1)N1CCN(c2cc(-c3ccccc3)[nH]n2)CC1 | > 40 µM (inactive)
52 | COc1c(O)cc(CC(=O)O)c(C(C)=O)c1O | 15.3 µM
53 | O=C(NCCc1ccccc1)c1ccc2c(=O)n(Cc3ccco3)c(=O)n(Cc3cccc([N+](=O)[O-])c3)c2c1 | 8.37 µM
54 | O=C(Cn1c(=O)n(CC2CCC(C(=O)NC3CCCC3)CC2)c(=O)c2ccccc21)NCCC1=CCCCC1 (stereo unspecified) | > 40 µM (inactive)
55 | Cc1cc(NC(=O)c2cc(-c3cccnc3)n[nH]2)ccc1Br | 28.6 µM
56 | O=C(CCc1nnc2n(Cc3ccccc3Cl)c(=O)c3ccccc3n12)NCc1ccccc1 | > 40 µM (inactive)
57 | Cc1ccccc1NC(=O)Cn1c(=O)n(-c2ccc(CC(=O)NCCc3ccccc3)cc2)c(=O)c2sccc21 | 12.8 µM
58 | COc1cc(NC(=O)c2ccc3c(c2)OCO3)ccc1-c1cc2ccccc2oc1=O | > 40 µM (inactive)
59 | N=C1/C(=C/c2cn(Cc3ccc(F)cc3)c3ccccc23)C(=O)N=C2SC(Cc3ccccc3)=NN12 | 17.4 µM
60 | Cc1cccc(NC(=O)Nc2ccc(C)n(CC(=O)Nc3ccc(C)c(C)c3)c2=O)c1 | > 40 µM (inactive)
61 | O=C(c1ccco1)N1CCC2(CC1)CC1(CO2)Nc2ccccc2-n2cccc21 (stereo unspecified) | > 40 µM (inactive)
62 | N#Cc1ccc(NC(=O)Nc2cccn(Cc3c(F)cccc3Cl)c2=O)cc1 | > 40 µM (inactive)
63 | CC(C)c1nnc(NC(=O)C2CC(=O)N(CCc3ccc(F)cc3)C2)s1 (stereo unspecified) | > 40 µM (inactive)
64 | Cc1ccccc1NC(=O)Cn1ccc2ccn(Cc3ccccc3)c2c1=O | > 40 µM (inactive)
65 | Cc1nc(C(=O)NC2(O)C(=O)c3ccccc3C2=O)cs1 | 6.82 µM
66 | O=C(Nc1cccc2ccccc12)N1CCC(c2nc3c(nnn3Cc3ccc(F)cc3)c(=O)[nH]2)CC1 | > 40 µM (inactive)
